The record followed here is PubChem BioAssay (NCI).

Common to all, as to assay: NCI anticancer screen, dose series, 48 h
The subject of test [1] is TK-10 renal.
In test [2] the test system is COLO 205 colon.
Test [3] deals with DU-145 prostate.
The test system of test [4] is HCC-2998 colon.
In test [5] the test system is HCT-116 colon.
Test [6] deals with A498 renal.
Test [7] relates to K-562 leukemia.
The test system of test [8] is BT-549 breast.
The subject of test [9] is OVCAR-8 ovarian.
In test [10] the test system is UACC-257 melanoma.

Where “and” joins values, the source holds several entries; their conditions need not be identical. Equal values may be shown once.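 Each compound was tested at five concentrations against cells in 96-well plates for 48 hours. GI50 is the concentration that inhibits growth by half. TGI marks complete inhibition of growth.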

With `COc1ccc(C(=O)c2cc3c(OC)c(OC)c(OC)cc3[nH]2)cc1`, the GI50 in [1] was 39.6 µM; in test [2] it was 3.45 µM; in test [3] it was above 100 µM; in [4], 3.8 µM; in [5] it was 3.22 µM; in test [6] it was 6.45 µM. Also, the GI50 is 1.1 µM in test [7], 8.51 µM in [8], 33.7 µM in test [9] and above 100 µM in [10]. The TGI in test [1] was above 100 µM; in test [2], above 100 µM; in test [3], above 100 µM; in test [4] it was above 100 µM; in [5], above 100 µM; in test [6] it was 47.7 µM. For the same compound, the TGI in test [7], in [8], in [9] and in [10] was above 100 µM in each case.
With `C=CC1CC12C(=O)C1OC2(C)C2C(=O)c3c(O)ccc(O)c3C(=O)C12` (stereo not given), the GI50 in [1] is 2.96 µM; in test [2], 1.52 µM; in test [3], 3.91 µM; in [4] it was 13.8 µM; in test [5], 4.66 µM; in test [6], 3.89 µM. Moreover, the GI50 in [7] is 2.48 µM; in test [8], 10.2 µM; in test [9] it was 6.24 µM; in [10] it was 3.75 µM. Also, the TGI was found to be 9.38 µM in [1]; 17 µM in test [2]; 13 µM in test [3]; 30.1 µM in test [4]; 9.03 µM in test [5]; 13.4 µM in [6]. In addition, the TGI is 6.95 µM in [7], 26.3 µM in test [8], 20.2 µM in test [9] and 11.2 µM in test [10].
With `O=c1[nH]cnc2[nH]ncc12`, the GI50 in test [1] is > 94.6 µM and 258 µM; in test [2] it was 440 µM; in [3], > 92.6 µM and 189 µM; in test [4], 319 µM; in test [5] it was 444 µM; in test [6], 532 µM. Moreover, the GI50 in [7] is 179 µM; in test [8] it was 578 µM; in test [9] it was 214 µM; in [10] it was 788 µM. The TGI is above 5000 µM in [1]; above 5000 µM in test [2]; above 2150 µM in test [3]; above 5000 µM in [4]; above 5000 µM in test [5]; above 5000 µM in test [6]. In addition, the TGI in test [7], in [8], in test [9] and in [10] was above 5000 µM throughout.
`O=C(Nc1ccccc1O)c1ccc(Oc2cccc(C(=O)Nc3ccccc3O)c2)cc1`: the GI50 in test [1] was 7.64 µM; in test [2], 15.7 µM; in test [3], 3.37 µM; in test [4], 3.62 µM; in test [5], 2.84 µM; in test [6], 0.0225 µM. In addition, the GI50 was 0.819 µM in [7], 2.53 µM in test [8], 2.03 µM in test [9] and 1.69 µM in test [10]. For the same compound, the TGI in test [1] is 30.2 µM; in test [2] it was 29.9 µM; in [3] it was 11.9 µM; in test [4], 11.9 µM; in [5] it was 10.4 µM; in test [6] it was 5.06 µM. Moreover, the TGI in test [7] is above 100 µM; in test [8] it was 27 µM; in test [9], 11.2 µM; in [10], 8.21 µM.
For the compound `O=C(N/N=C/c1ccccc1O)C(=O)Nc1ccc(F)cc1`, the GI50 in test [1] is 6.12 µM; in test [2], 3.28 µM; in [3] it was 7.14 µM; in test [4], 4.61 µM; in [5] it was 3.19 µM; in [6], 83.4 µM. The GI50 was 5.02 µM in test [7], 18.1 µM in test [8], 4.3 µM in [9] and 2.85 µM in test [10]. Further, the TGI in test [1], in [2], in test [3], in test [4], in test [5] and in test [6] was above 100 µM throughout. Moreover, the TGI in test [7] is above 100 µM; in test [8] it was above 100 µM; in test [9], above 100 µM; in test [10], 15 µM.
Regarding `O=C(O)c1cc(N=Cc2ccccc2O)cc(C(=O)O)c1`, the TGI in [1], in [2], in test [3], in test [4], in test [5] and in [6] was above 100 µM each time. The TGI in test [7], in test [8], in [9] and in test [10] was above 100 µM each time.
In the case of `NS(=O)(=O)c1cccc(N=Cc2c(O)[nH]c3ccccc23)c1`, the GI50 in test [1] is above 17.7 µM; in test [2], above 25 µM; in test [3] it was above 25 µM; in test [4], above 25 µM; in test [5], above 25 µM; in test [6] it was above 25 µM. For the same compound, the GI50 in test [7], in test [8], in test [9] and in test [10] was above 25 µM throughout. For the same compound, the TGI in [1], in test [2], in test [3], in test [4], in test [5] and in test [6] was above 25 µM throughout. Moreover, the TGI in test [7], in test [8], in [9] and in test [10] was above 25 µM in each case.
With `COc1cc(-c2nc3sc4c(c3c(=O)[nH]2)CCCCCC4)cc(OC)c1OC`, the GI50 is 13.8 µM in test [1]; 1.16 µM in test [2]; 1.78 µM in test [3]; 2.41 µM in test [4]; 1.21 µM in test [5]; 0.694 µM in test [6]. Also, the GI50 in [7] is 0.263 µM; in test [8], 1.26 µM; in [9], 1.52 µM; in test [10], 3 µM. Besides, the TGI is above 33.2 µM in test [1]; 10.3 µM in test [2]; above 33.2 µM in test [3]; above 33.2 µM in [4]; 5.72 µM in [5]; 3.17 µM in [6]. Further, the TGI in [7] is above 33.2 µM; in test [8], 19 µM; in [9], above 33.2 µM; in test [10], above 33.2 µM.
